Assay results: patent US20260092083A1, “VANCOMYCIN DERIVATIVES WITH SIDEROPHORE MODIFICATION AS NOVEL REPURPOSED ANTIBIOTICS TO COMBAT GRAM-NEGATIVE BACTERIAL INFECTION” (priority 2023, published 2026)
Converted amounts (≈) assume the structure as drawn.

Legend:
Assay type in all cases: cell-based
[1] = tested on: P. aeruginosa (multi-pump-gene mutant) PAM1626; test: Broth microdilution MIC, P. aeruginosa efflux-deficient; conditions: Pseudomonas aeruginosa, read-out: MIC (μg/mL) Gram-negative PSA Efflux
Method: (§1) The test compounds including vancomycin hydrochloride were supplied as a 6.4 mg/mL solution in 100% dimethyl sulfoxide (DMSO) aliquoted into individual wells of a 96-well plate (50 μL per well). […] Standardized inocula were added to the MIC test plates, which were incubated for the prescribed times at 35° C. The N. gonorrhoeae strain was incubated in an atmosphere containing 5% CO2.
(§2) The final optical density of each well at 600 nm was measured using a Tecan Spark plate reader. The compound concentration versus OD600 data were then curve fit using custom software. An MIC value was defined as the lowest compound concentration that led to an OD600 value≤0.15 for the E. coli, K. pneumoniae, P. aeruginosa, A. baumannii, or S. aureus strains. For the N. gonorrhoeae strain, an OD600 value≤0.19 was used as a cutoff to define an MIC value; this higher cut-off value was required because the N. gonorrhoeae MIC plates were covered with plastic seals that increased the background OD600 value.
(§3) JMI Laboratories followed current CLSI quality assurance practices when performing the susceptibility tests. MIC values were validated by concurrently testing the CLSI-recommended ATCC QC reference strains S. aureus ATCC 29213 and K. pneumoniae ATCC 700603. The inoculum density during susceptibility testing was monitored by bacterial colony counts. Where applicable, QC ranges for tested reference strains were those ranges approved or published by CLSI for testing in CAMHB. […] Importantly, the CLSI reference method for testing N. gonorrhoeae is the agar dilution MIC method, which was not used here. Thus, CLSI MIC QC ranges for N. gonorrhoeae could not be applied to the antimicrobials studied here.
(§4) Abbreviations: EC, E. coli (wild-type) BW25113; EC efflux^−, E. coli (tolC) JW5503-1; KPN, K. pneumoniae ATCC 700603; PSA, P. aeruginosa PAO1; PSA efflux^−, P. aeruginosa (multi-pump-gene mutant) PAM1626; ACB, A. baumannii JMI #1186154; GC, N. gonorrhoeae WHO-Z; SA, S. aureus ATCC 29213. Broth microdilution MIC values were measured in iron-depleted CAMHB for all strains except for GC, which was tested in fastidious broth.

S. aureus ATCC 29213 = test: Broth microdilution MIC, S. aureus; conditions: Staphylococcus aureus, ATCC29213, iron-depleted CAMHB, OD600 ≤0.15, read-out: MIC (μg/mL) Gram positive SA
Method: as §1, §2, §3, §4

[2] = tested on: E. coli (wild-type) BW25113; test: Broth microdilution MIC, E. coli wild-type; conditions: Escherichia coli, iron-depleted CAMHB, OD600 ≤0.15, read-out: MIC (μg/mL) Gram-negative EC
Method: as §1, §2, §3, §4

P. aeruginosa PAO1 = test: Broth microdilution MIC, P. aeruginosa; conditions: Pseudomonas aeruginosa, iron-depleted CAMHB, OD600 ≤0.15, read-out: MIC (μg/mL) Gram-negative PSA
Method: as §1, §2, §3, §4

[3] = tested on: A. baumannii JMI #1186154; test: Broth microdilution MIC, A. baumannii; conditions: Acinetobacter baumannii, iron-depleted CAMHB, OD600 ≤0.15, read-out: MIC (μg/mL) Gram-negative ACB
Method: as §1, §2, §3, §4

N. gonorrhoeae WHO-Z = test: Broth microdilution MIC, N. gonorrhoeae; conditions: Neisseria gonorrhoeae, read-out: MIC (μg/mL) Gram-negative GC
Method: as §1, §2, §3, §4

E. coli (tolC) JW5503-1 = test: Broth microdilution MIC, E. coli efflux-deficient (tolC); conditions: Escherichia coli, read-out: MIC (μg/mL) Gram-negative EC Efflux
Method: as §1, §2, §3, §4

[4] = tested on: K. pneumoniae ATCC 700603; test: Broth microdilution MIC, K. pneumoniae; conditions: Klebsiella pneumoniae, ATCC700603, read-out: MIC (μg/mL) Gram-negative KPN
Method: as §1, §2, §3, §4

SMILES | MIC [1] | MIC (S. aureus ATCC 29213) | MIC [2] | MIC (P. aeruginosa PAO1) | MIC [3] | MIC (N. gonorrhoeae WHO-Z) | MIC (E. coli (tolC) JW5503-1) | MIC [4]
CN[C@H](CC(C)C)C(=O)N[C@H]1C(=O)N[C@@H](CC(N)=O)C(=O)N[C@H]2C(=O)N[C@H]3C(=O)N[C@H](C(=O)N[C@H](C(=O)NCCCCCCCCNC(=O)c4ccc(O)c(O)c4Cl)c4cc(O)cc(O)c4-c4cc3ccc4O)[C@H](O)c3ccc(c(Cl)c3)Oc3cc2cc(c3O[C@@H]2O[C@H](CO)C(O)C(O)[C@H]2O[C@H]2CC(C)(N)[C@H](O)[C@H](C)O2)Oc2ccc(cc2Cl)[C@H]1O (some centres unmarked) [Compound 9] | > 64 µg/mL | 4 µg/mL (≈ 2.29 µM) | 64 µg/mL (≈ 36.7 µM) | > 64 µg/mL | 8 µg/mL (≈ 4.58 µM) | > 64 µg/mL | 64 µg/mL (≈ 36.7 µM) | > 64 µg/mL
CNC(CC(C)C)C(=O)NC1C(=O)NC(CC(N)=O)C(=O)NC2C(=O)NC3C(=O)NC(C(=O)N[C@H](C(=O)O)c4cc(O)c(CNCCN[S@SP3](=O)(=O)c5ccc(O)c(O)c5)c(O)c4-c4cc3ccc4O)C(O)c3ccc(c(Cl)c3)Oc3cc2cc(c3OC2OC(CO)C(O)C(O)C2OC2CC(C)(N)C(O)C(C)O2)Oc2ccc(cc2Cl)C1O (some centres unmarked) [Compound 25] | > 64 µg/mL | 4 µg/mL (≈ 2.36 µM) | 16 µg/mL (≈ 9.45 µM) | > 64 µg/mL | 32 µg/mL (≈ 18.9 µM) | > 64 µg/mL | 64 µg/mL (≈ 37.8 µM) | > 64 µg/mL
CNC(CC(C)C)C(=O)N[C@H]1C(=O)N[C@@H](CC(N)=O)C(=O)N[C@H]2C(=O)N[C@H]3C(=O)N[C@H](C(=O)N[C@@H](C(=O)NCCNC(=O)c4ccc(O)c(O)c4Cl)c4cc(O)cc(O)c4-c4cc3ccc4O)[C@H](O)c3ccc(c(Cl)c3)Oc3cc2cc(c3OC2O[C@H](CO)C(O)C(O)[C@H]2O[C@H]2CC(C)(N)[C@H](O)C(C)O2)Oc2ccc(cc2Cl)[C@H]1O (stereo in doubt) [Compound 3] | > 64 µg/mL | 4 µg/mL (≈ 2.41 µM) | 16 µg/mL (≈ 9.63 µM) | > 64 µg/mL | 2 µg/mL (≈ 1.2 µM) | > 64 µg/mL | > 64 µg/mL | > 64 µg/mL
CNC(CC(C)C)C(=O)NC1C(=O)NC(CC(N)=O)C(=O)NC2C(=O)NC3C(=O)NC(C(=O)N[C@H](C(=O)O)c4cc(O)cc(O)c4-c4cc3ccc4O)C(O)c3ccc(c(Cl)c3)Oc3cc2cc(c3OC2OC(CO)C(O)C(O)C2OC2CC(C)(NCCNC(=O)c3ccc(O)c(O)c3Cl)C(O)C(C)O2)Oc2ccc(cc2Cl)C1O (some centres unmarked) [Compound 28] | > 64 µg/mL | 4 µg/mL (≈ 2.41 µM) | > 64 µg/mL | > 64 µg/mL | 32 µg/mL (≈ 19.2 µM) | > 64 µg/mL | > 64 µg/mL | > 64 µg/mL
CNC(CC(C)C)C(=O)NC1C(=O)NC(CC(N)=O)C(=O)NC2C(=O)NC3C(=O)NC(C(=O)N[C@H](C(=O)NCCCCNC(=O)c4cc(=O)c(O)c[nH]4)c4cc(O)cc(O)c4-c4cc3ccc4O)C(O)c3ccc(c(Cl)c3)Oc3cc2cc(c3OC2OC(CO)C(O)C(O)C2OC2CC(C)(N)C(O)C(C)O2)Oc2ccc(cc2Cl)C1O (stereo in doubt) [Compound 21] | > 64 µg/mL | 32 µg/mL (≈ 19.3 µM) | 32 µg/mL (≈ 19.3 µM) | 64 µg/mL (≈ 38.6 µM) | 32 µg/mL (≈ 19.3 µM) | > 64 µg/mL | 64 µg/mL (≈ 38.6 µM) | > 64 µg/mL
CNC(CC(C)C)C(=O)N[C@H]1C(=O)N[C@@H](CC(N)=O)C(=O)N[C@H]2C(=O)N[C@H]3C(=O)N[C@H](C(=O)N[C@@H](C(=O)NCc4cn(CCNC(=O)c5cccc(O)c5O)nn4)c4cc(O)cc(O)c4-c4cc3ccc4O)[C@H](O)c3ccc(c(Cl)c3)Oc3cc2cc(c3OC2O[C@H](CO)C(O)C(O)[C@H]2O[C@H]2CC(C)(N)[C@H](O)C(C)O2)Oc2ccc(cc2Cl)[C@H]1O (stereo in doubt) [Compound 14] | > 64 µg/mL | 4 µg/mL (≈ 2.34 µM) | > 64 µg/mL | > 64 µg/mL | 16 µg/mL (≈ 9.36 µM) | > 64 µg/mL | > 64 µg/mL | > 64 µg/mL
CN[C@H](CC(C)C)C(=O)N[C@H]1C(=O)N[C@@H](CC(N)=O)C(=O)N[C@H]2C(=O)N[C@H]3C(=O)N[C@H](C(=O)N[C@H](C(=O)NCCCCCCCNC(=O)c4ccc(O)c(O)c4Cl)c4cc(O)cc(O)c4-c4cc3ccc4O)[C@H](O)c3ccc(c(Cl)c3)Oc3cc2cc(c3O[C@@H]2O[C@H](CO)C(O)C(O)[C@H]2O[C@H]2CC(C)(N)[C@H](O)[C@H](C)O2)Oc2ccc(cc2Cl)[C@H]1O (some centres unmarked) [Compound 8] | > 64 µg/mL | 4 µg/mL (≈ 2.31 µM) | 64 µg/mL (≈ 37 µM) | > 64 µg/mL | 2 µg/mL (≈ 1.15 µM) | > 64 µg/mL | 64 µg/mL (≈ 37 µM) | > 64 µg/mL
CNC(CC(C)C)C(=O)NC1C(=O)NC(CC(N)=O)C(=O)NC2C(=O)NC3C(=O)NC(C(=O)N[C@H](C(=O)O)c4cc(O)c(CNCCCCNC(=O)c5ccc(O)c(O)c5Cl)c(O)c4-c4cc3ccc4O)C(O)c3ccc(c(Cl)c3)Oc3cc2cc(c3OC2OC(CO)C(O)C(O)C2OC2CC(C)(N)C(O)C(C)O2)Oc2ccc(cc2Cl)C1O (some centres unmarked) [Compound 23] | > 64 µg/mL | 64 µg/mL (≈ 37.2 µM) | 64 µg/mL (≈ 37.2 µM) | > 64 µg/mL | 8 µg/mL (≈ 4.65 µM) | > 64 µg/mL | > 64 µg/mL | > 64 µg/mL
CN[C@H](CC(C)C)C(=O)N[C@H]1C(=O)N[C@@H](CC(N)=O)C(=O)N[C@H]2C(=O)N[C@H]3C(=O)N[C@H](C(=O)N[C@H](C(=O)NCCCNC(=O)c4ccc(O)c(O)c4Cl)c4cc(O)cc(O)c4-c4cc3ccc4O)[C@H](O)c3ccc(c(Cl)c3)Oc3cc2cc(c3O[C@@H]2O[C@H](CO)C(O)C(O)[C@H]2O[C@H]2CC(C)(N)[C@H](O)[C@H](C)O2)Oc2ccc(cc2Cl)[C@H]1O (some centres unmarked) [Compound 4] | > 64 µg/mL | 2 µg/mL (≈ 1.19 µM) | 8 µg/mL (≈ 4.77 µM) | > 64 µg/mL | 1 µg/mL (≈ 0.597 µM) | > 64 µg/mL | > 64 µg/mL | > 64 µg/mL
CC(C)CC(C(=O)NC1C(=O)NC(CC(N)=O)C(=O)NC2C(=O)NC3C(=O)NC(C(=O)N[C@H](C(=O)O)c4cc(O)cc(O)c4-c4cc3ccc4O)C(O)c3ccc(c(Cl)c3)Oc3cc2cc(c3OC2OC(CO)C(O)C(O)C2OC2CC(C)(N)C(O)C(C)O2)Oc2ccc(cc2Cl)C1O)N(C)CCCc1cn(CCCNC(=O)c2ccc(O)c(O)c2Cl)nn1 (some centres unmarked) [Compound 32] | > 64 µg/mL | 32 µg/mL (≈ 17.9 µM) | > 64 µg/mL | > 64 µg/mL | 32 µg/mL (≈ 17.9 µM) | > 64 µg/mL | > 64 µg/mL | > 64 µg/mL
